Measured values published in US20220354957A1, “PEPTIDES TARGETING MACROPHAGES, AND CONJUGATES, COMPOSITIONS, AND USES THEREOF” (Twinpig Biolab, Inc., priority 2021, published 2022).

Columns and labels:
[1] = Cytotoxicity in human melanoma cells; type: cell-based; conditions: Sk-Mel-28 cells
mouse RBC = assay: Hemolytic activity assay; type: cell-based; conditions: 0.1-50 μM, 37° C., 1 h, read-out: hemolysis IC50
Description: Mouse blood samples were collected in tubes containing heparin as an anticoagulant and stored at 4 ° C. before use. Whole blood sample were centrifuged at 1,500×g for 5 min and the resulting plasma fraction was removed from the samples. The pellets were washed with an equal volume of saline, mixing by inversion. The centrifuging and washing steps were repeated 5 times. Red blood cells were counted by a hemocytometer and adjusted to […]. Red blood cells were then incubated at 37° C. for 1 h in 1% Triton X-100 (positive control), in PBS (blank), or with increasing concentrations of TAMpep and Mpep (0.1-50 μM) were evaluated. The samples were then centrifuged at 10,000 g for 5 min, the supernatant was separated from the pellet, and its absorbance measured at 570 nm. The relative optical density compared to that of the suspension treated with 1% Triton X-100 was defined as the percentage of hemolysis.

TRAMP-C2 cells = assay: Mouse model of prostate cancer (subcutaneous TRAMP-C2); type: in vivo; conditions: TRAMP-C2 prostate cancer model
Text: (§1) BALB/c and C57BL/6 (B6) wild-type mice were purchased from DBL. For the subcutaneous tumor model of melanoma and prostate cancer, CT26 (3×10^5 cells/mouse), B16F10 (1×10^6 cells/mouse) and TRAMP-C2 cells (1×10^6 cells/mouse) were mixed with Matrigel matrix (Corning) and inoculated subcutaneously into the right flank of the mice, and 4T1 (1×10^5 cells/mouse) cells mixed with Matrigel matrix and inoculated into a 4th mammary fat pad of the mice. TAMpepK, and MpepK peptides (200 nmol/kg) were injected intraperitoneally every 3 days, beginning at day 7 after tumor inoculation, and tumor volume was measured by electronic caliper. All tumor tissues were harvested after the end of the study and tumor weight was measured by an electronic balance.
Cells were harvested and lysed in PRO-PREP protein extraction solution (iNtRON, Bio Inc, Sungnam, Korea). Protein concentrations were measured with a Bradford Protein Assay Reagent kit (Bio-Rad, Richmond, CA, USA). Proteins were fractionated by 10% SDS-polyacrylamide gels electrophoresis (PAGE), and transferred onto polyvinylidene difluoride (PVDF) membranes. These were incubated with anti-arginase 1, anti-CD206, anti-caspase 3, anti-E-cadherin, anti-fibronectin, anti-PCNA, anti-TGF-β, anti-MMP9, and anti-β-actin Ab as primary antibodies. Goat anti-rabbit horseradish peroxidase-conjugated IgG or goat anti-mouse horseradish peroxidase-conjugated IgG (Abcam, Cambridge, Mass., USA) served as secondary antibodies. Protein bands were detected with a chemiluminescence reagent kit (SurModics).

[2] = test system: murine melanoma cells (B16F10 cell line); assay: Mouse model of melanoma (subcutaneous B16F10); type: in vivo; conditions: B16F10 melanoma model, vs PBS group
Text: as §1

[3] = Cytotoxicity assay (CCK-8 cell viability); type: cell-based, human; conditions: THP-1-derived M2 macrophages, CCK-8
Description: THP-1 cells were differentiated into macrophages by 24 h incubation with 100 nM PMA and polarized in M2 macrophages by incubation with 20 ng/ml of IL-4 and 20 ng/ml of IL-13 for 72 h. Polarized cells were treated with increasing concentrations of TAMpep and fragments of TAMpep (0.05-20 μM) for 24 h. Cell viability was analyzed using the CCK-8 assay: CCK-8 reagent (Enzo Life Sciences) was added to each well; incubation was continued for 2 hours, and absorbance was measured at 450 nm with a microplate reader (Molecular Devices).

[4] = Cell viability test (CCK-8) of dKLA-conjugated alanine-substituted peptides; type: cell-based, human
Description: (§2) THP-1 monocytes were differentiated into macrophages (M0) by 24 h incubation with 100 nM phorbol 12-myristate 13-acetate (PMA, Sigma) followed by 24 h incubation in RPMI medium (Invitrogen). Macrophages were polarized in M1 macrophages (M1) by incubation with 20 ng/ml of IFN-γ (Prospec) and 100ng/m1 of LPS (Sigma). Macrophage M2 polarization(M2) was obtained by incubation with 20 ng/ml of interleukin (IL) 4 (Prospec) and 20 ng/ml of interleukin 13 (Pro spec).
(§3) Polarized cells were treated with 1.5 μM MpepK, A12K, A14K, A17K, A18K, A22K, A25K or A26K peptides for 1 hour and further incubated in RPMI1640 growth medium for 24 hours. Cell viability was analyzed using the CCK-8 assay: CCK-8 reagent (Enzo Life Sciences) was added to each well; incubation was continued for 2 hours, and absorbance was measured at 450 nm with a microplate reader (Molecular Devices).
(§4) THP-1 cells (1×10^4 cells/well) were differentiated into macrophages with 100 nM PMA (MO) for 24 h and polarized into classical M1 macrophages by treatment of IFN-γ (20 ng/ml) and LPS (100 ng/ml) and LPS-stimulated macrophages (LPS-M1) were induced by LPS (1 m/ml) treatment for 24h. Cells were treated with 1.5 μM of A26K for 1 hour and further incubated in RPMI1640 growth medium for 24 hours. Cell viability was analyzed using the CCK-8 assay. CCK-8 reagent was added to each well and incubated for 1.5-2 hours. Absorbance was measured at 450 nm with a microplate reader.

M1 macrophages = assay: as above; type: cell-based, human; conditions: 1.5 μM, 1 hour then 24 hours, CCK-8, compared to control M1 macrophage
Description: as §2, §3, §4

LPS-M1 macrophages = assay: Expression of pro-inflammatory genes in in vitro sepsis model (real-time quantitative PCR); type: cell-based, human; conditions: 1.5 μM for 1 h, compared to LPS-M1 macrophages
Description: THP-1 cells (2×10^5 cells/well) were differentiated into macrophages with 100 nM PMA (MO) for 24h and polarized into classical M1 macrophages by treatment of IFN-γ (20 ng/ml) and LPS (100 ng/ml) and LPS-M1 macrophages were induced by LPS (1 m/ml) treatment for 2 h. Polarized cells were treated with 1.5 μM of A26K for 1 hour and further incubated in RPMI1640 growth medium for 24 hours. Expression levels of pro-inflammatory genes (IL-8, TNF-α, NF-kB, IL-1(3 and CXCL10) were quantified by real-time quantitative PCR.

[5] = Cytotoxicity in in vitro sepsis model (CCK-8); type: cell-based, human; conditions: compared to control, read-out: inhibition (cytotoxic effect) in LPS-M1 macrophages
Description: as §4

Row | Structure (SMILES) | IC50 [1] [nM] | IC50 (mouse RBC) [nM] | body weight of mice (TRAMP-C2 cells) | body weight of mice [2] | IC50 [3] [nM] | cytotoxicity ([4]; 1.5 μM, compared to control, read-out: inhibition of viability in M1 macrophages) [%] | IC50 ([4]; 0.01-10 μM, read-out: cytotoxicity IC50 in M1 macrophages) [nM] | cytotoxic effect in M1 macrophages (M1 macrophages) | expression levels of IL8, TNF-α, IL-1β, NF-kB and CXCL10 enhanced by LPS stimulation (LPS-M1 macrophages) | inhibition at 1.5 µM [5] [%]
1 | CC[C@H](C)[C@H](NC(=O)CNC(C)=O)C(=O)NCC(=O)N[C@@H](C)C(=O)N[C@H](C(=O)N[C@@H](CC(C)C)C(=O)N[C@@H](CCCCN)C(=O)N[C@H](C(=O)N[C@@H](CC(C)C)C(=O)N[C@H](C(=O)N[C@H](C(=O)NCC(=O)N[C@@H](CC(C)C)C(=O)N1CCC[C@H]1C(=O)N[C@@H](C)C(=O)N[C@@H](CC(C)C)C(=O)N[C@H](C(=O)N[C@@H](CO)C(=O)N[C@@H](Cc1c[nH]c2ccccc12)C(=O)N[C@H](C(=O)N[C@@H](CCCCN)C(=O)N[C@@H](CCCNC(=N)N)C(=O)N[C@@H](CCCCN)C(=O)N[C@@H](CCCNC(=N)N)C(=O)N[C@@H](CCC(N)=O)C(=O)N[C@@H](CCC(N)=O)C(=O)NCC(=O)NCC(=O)NCC(=O)NCC(=O)N[C@@H](CO)C(=O)N[C@H](CCCCN)C(=O)N[C@H](CC(C)C)C(=O)N[C@H](C)C(=O)N[C@H](CCCCN)C(=O)N[C@H](CC(C)C)C(=O)N[C@H](C)C(=O)N[C@H](CCCCN)C(=O)N[C@H](CCCCN)C(=O)N[C@H](CC(C)C)C(=O)N[C@H](C)C(=O)N[C@H](CCCCN)C(=O)N[C@H](CC(C)C)C(=O)N[C@H](C)C(=O)N[C@H](CCCCN)C(=O)O)[C@@H](C)CC)[C@@H](C)CC)[C@@H](C)O)[C@@H](C)O)C(C)C)C(C)C [TAMpepK] | 3580 | 1120 | did not significantly change | not significantly changed | 1060 | – | – | – | – | –
2 | CC[C@H](C)[C@H](NC(=O)[C@H](CC(C)C)NC(=O)[C@H](C)NC(=O)[C@@H]1CCCN1C(=O)[C@H](CC(C)C)NC(=O)CNC(=O)[C@@H](NC(=O)[C@@H](NC(=O)[C@H](CC(C)C)NC(=O)[C@@H](NC(C)=O)C(C)C)[C@@H](C)O)[C@@H](C)O)C(=O)N[C@@H](CO)C(=O)N[C@@H](Cc1c[nH]c2ccccc12)C(=O)N[C@H](C(=O)N[C@@H](CCCCN)C(=O)N[C@@H](CCCNC(=N)N)C(=O)N[C@@H](CCCCN)C(=O)N[C@@H](CCCNC(=N)N)C(=O)N[C@@H](CCC(N)=O)C(=O)N[C@@H](C)C(=O)NCC(=O)NCC(=O)NCC(=O)NCC(=O)N[C@@H](CO)C(=O)N[C@H](CCCCN)C(=O)N[C@H](CC(C)C)C(=O)N[C@H](C)C(=O)N[C@H](CCCCN)C(=O)N[C@H](CC(C)C)C(=O)N[C@H](C)C(=O)N[C@H](CCCCN)C(=O)N[C@H](CCCCN)C(=O)N[C@H](CC(C)C)C(=O)N[C@H](C)C(=O)N[C@H](CCCCN)C(=O)N[C@H](CC(C)C)C(=O)N[C@H](C)C(=O)N[C@H](CCCCN)C(=O)O)[C@@H](C)CC [A26K] | – | – | – | – | – | 53 | 1190 | great significant selective cytotoxic effect | significantly inhibited | 37
